Measurements: US12479847B2 (DANA-FARBER CANCER INSTITUTE, INC., priority 2019, dated 2025)

Experiments:
Assay in all cases: KINOMEscan (ScanMAX) kinase profiling
Format in all cases: binding
panel of 468 kinases [1] = target: T1, panel of 468 kinases (Homo sapiens, UniProt O14730); conditions: RIOK3; 1 μM; read-out: % control
T1 construct: purchased KINOMEscan (ScanMAX) service
T1 sequence (O14730 1-519): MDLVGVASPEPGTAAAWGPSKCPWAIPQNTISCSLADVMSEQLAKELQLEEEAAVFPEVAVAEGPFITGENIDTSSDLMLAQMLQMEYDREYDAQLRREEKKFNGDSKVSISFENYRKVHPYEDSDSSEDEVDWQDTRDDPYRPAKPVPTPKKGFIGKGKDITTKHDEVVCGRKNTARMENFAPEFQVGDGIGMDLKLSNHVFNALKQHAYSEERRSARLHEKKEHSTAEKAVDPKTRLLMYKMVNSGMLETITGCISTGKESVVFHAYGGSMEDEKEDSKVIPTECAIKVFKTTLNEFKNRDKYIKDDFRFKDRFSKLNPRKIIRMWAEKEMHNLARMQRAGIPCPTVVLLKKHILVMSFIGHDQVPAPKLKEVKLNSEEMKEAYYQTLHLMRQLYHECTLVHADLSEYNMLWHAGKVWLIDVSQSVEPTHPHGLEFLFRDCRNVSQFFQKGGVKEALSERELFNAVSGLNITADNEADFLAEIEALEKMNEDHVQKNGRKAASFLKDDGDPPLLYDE

panel of 468 kinases [2] = target: T2, panel of 468 kinases (Homo sapiens, UniProt O94804); conditions: LOK; 1 μM; read-out: % control
T2 construct: purchased KINOMEscan (ScanMAX) service

panel of 468 kinases [3] = target: T3, panel of 468 kinases (Homo sapiens, UniProt O95819); conditions: MAP4K4; 1 μM; read-out: % control
T3 construct: purchased KINOMEscan (ScanMAX) service

panel of 468 kinases [4] = target: T4, panel of 468 kinases (Homo sapiens, UniProt P21860); conditions: ERBB3; 1 μM; read-out: % control
T4 construct: purchased KINOMEscan (ScanMAX) service

panel of 468 kinases [5] = target: T5, panel of 468 kinases (Homo sapiens, UniProt Q13164); conditions: ERK5; 1 μM; read-out: % control
T5 construct: purchased KINOMEscan (ScanMAX) service

panel of 468 kinases [6] = target: T6, panel of 468 kinases (Homo sapiens, UniProt Q13470); conditions: TNK1; 1 μM; read-out: % control
T6 construct: purchased KINOMEscan (ScanMAX) service
T6 sequence (Q13470 1-666): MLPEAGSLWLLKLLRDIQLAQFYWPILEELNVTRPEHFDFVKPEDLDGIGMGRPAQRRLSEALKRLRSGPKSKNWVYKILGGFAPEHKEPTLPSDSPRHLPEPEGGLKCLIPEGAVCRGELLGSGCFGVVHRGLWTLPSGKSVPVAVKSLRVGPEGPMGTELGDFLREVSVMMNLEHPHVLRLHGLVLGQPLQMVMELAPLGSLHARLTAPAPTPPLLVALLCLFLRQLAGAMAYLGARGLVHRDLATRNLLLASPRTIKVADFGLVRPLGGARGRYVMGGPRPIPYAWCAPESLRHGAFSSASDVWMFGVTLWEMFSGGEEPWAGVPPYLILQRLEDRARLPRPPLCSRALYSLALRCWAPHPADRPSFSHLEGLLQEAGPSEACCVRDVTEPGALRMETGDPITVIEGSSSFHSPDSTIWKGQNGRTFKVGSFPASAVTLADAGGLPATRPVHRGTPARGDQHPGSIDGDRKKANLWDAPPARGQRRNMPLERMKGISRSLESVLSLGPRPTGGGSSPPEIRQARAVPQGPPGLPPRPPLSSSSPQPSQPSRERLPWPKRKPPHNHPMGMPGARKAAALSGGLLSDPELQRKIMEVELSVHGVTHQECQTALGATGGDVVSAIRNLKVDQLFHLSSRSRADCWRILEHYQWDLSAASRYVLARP

panel of 468 kinases [7] = target: T7, panel of 468 kinases (Homo sapiens, UniProt Q8NEV4); conditions: MYO3A; 1 μM; read-out: % control
T7 construct: purchased KINOMEscan (ScanMAX) service

panel of 468 kinases [8] = target: T8, panel of 468 kinases (Homo sapiens, UniProt Q8TDR2); conditions: STK35; 1 μM; read-out: % control
T8 construct: purchased KINOMEscan (ScanMAX) service

panel of 468 kinases [9] = target: T9, panel of 468 kinases (Homo sapiens, UniProt Q9H0K1); conditions: SIK2; 1 μM; read-out: % control
T9 construct: purchased KINOMEscan (ScanMAX) service
T9 sequence (Q9H0K1 whole entry): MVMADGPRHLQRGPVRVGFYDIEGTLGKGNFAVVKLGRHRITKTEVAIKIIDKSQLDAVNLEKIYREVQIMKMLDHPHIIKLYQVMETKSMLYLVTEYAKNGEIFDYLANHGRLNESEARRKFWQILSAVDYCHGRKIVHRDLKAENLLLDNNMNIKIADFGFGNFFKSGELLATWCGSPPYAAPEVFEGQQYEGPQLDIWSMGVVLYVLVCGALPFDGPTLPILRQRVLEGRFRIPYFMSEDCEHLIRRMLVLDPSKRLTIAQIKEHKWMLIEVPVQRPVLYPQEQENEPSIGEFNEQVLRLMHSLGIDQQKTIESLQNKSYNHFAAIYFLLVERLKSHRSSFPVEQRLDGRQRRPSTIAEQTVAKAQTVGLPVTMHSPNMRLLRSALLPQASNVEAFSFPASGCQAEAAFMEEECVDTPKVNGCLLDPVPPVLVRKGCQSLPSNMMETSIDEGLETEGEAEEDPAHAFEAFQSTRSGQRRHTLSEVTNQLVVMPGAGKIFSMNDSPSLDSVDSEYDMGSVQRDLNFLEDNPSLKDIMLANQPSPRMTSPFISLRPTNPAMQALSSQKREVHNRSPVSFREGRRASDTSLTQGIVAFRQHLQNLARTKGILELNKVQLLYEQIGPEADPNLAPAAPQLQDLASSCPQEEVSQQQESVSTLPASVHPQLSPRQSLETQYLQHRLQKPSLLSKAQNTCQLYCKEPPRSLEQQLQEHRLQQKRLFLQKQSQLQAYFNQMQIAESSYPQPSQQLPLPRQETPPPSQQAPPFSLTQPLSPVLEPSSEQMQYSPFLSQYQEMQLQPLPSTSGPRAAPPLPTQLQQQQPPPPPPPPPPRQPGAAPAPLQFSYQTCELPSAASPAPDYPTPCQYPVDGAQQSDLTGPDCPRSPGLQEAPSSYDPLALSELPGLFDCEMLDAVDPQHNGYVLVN

T4 sequence (P21860 20-1342): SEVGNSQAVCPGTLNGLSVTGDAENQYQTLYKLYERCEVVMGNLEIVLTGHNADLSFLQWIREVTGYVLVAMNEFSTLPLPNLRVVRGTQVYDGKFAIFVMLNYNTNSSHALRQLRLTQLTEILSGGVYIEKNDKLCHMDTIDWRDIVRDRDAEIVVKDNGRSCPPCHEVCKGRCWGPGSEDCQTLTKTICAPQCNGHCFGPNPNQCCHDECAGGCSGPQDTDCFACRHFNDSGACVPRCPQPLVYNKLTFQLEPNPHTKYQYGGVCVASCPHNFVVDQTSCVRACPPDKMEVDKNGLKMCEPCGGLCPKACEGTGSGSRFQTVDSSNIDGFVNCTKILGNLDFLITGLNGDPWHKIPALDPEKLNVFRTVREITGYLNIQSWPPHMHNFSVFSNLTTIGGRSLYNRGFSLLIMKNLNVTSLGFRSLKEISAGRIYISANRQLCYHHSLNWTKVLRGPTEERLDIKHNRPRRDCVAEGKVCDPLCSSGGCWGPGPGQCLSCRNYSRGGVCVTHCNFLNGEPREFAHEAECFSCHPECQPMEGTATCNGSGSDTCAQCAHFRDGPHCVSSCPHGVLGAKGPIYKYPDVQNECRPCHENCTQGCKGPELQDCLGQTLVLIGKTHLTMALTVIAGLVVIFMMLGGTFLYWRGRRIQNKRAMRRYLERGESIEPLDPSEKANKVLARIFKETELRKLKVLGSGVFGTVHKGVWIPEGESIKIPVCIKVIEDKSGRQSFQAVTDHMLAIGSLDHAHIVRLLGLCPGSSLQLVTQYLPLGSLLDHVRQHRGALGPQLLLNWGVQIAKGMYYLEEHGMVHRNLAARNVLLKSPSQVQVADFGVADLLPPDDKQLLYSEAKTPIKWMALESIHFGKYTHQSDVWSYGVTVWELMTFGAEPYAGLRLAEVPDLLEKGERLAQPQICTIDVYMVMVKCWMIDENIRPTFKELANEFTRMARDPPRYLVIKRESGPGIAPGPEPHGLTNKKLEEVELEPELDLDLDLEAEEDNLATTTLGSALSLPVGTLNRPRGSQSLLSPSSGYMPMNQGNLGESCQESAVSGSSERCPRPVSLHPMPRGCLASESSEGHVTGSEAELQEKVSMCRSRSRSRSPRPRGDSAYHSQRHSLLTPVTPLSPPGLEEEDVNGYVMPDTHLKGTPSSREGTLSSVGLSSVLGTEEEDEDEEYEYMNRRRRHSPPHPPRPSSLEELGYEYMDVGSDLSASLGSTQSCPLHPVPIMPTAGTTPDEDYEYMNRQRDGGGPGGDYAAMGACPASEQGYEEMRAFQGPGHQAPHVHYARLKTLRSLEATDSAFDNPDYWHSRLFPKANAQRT
T2 sequence (O94804 whole entry): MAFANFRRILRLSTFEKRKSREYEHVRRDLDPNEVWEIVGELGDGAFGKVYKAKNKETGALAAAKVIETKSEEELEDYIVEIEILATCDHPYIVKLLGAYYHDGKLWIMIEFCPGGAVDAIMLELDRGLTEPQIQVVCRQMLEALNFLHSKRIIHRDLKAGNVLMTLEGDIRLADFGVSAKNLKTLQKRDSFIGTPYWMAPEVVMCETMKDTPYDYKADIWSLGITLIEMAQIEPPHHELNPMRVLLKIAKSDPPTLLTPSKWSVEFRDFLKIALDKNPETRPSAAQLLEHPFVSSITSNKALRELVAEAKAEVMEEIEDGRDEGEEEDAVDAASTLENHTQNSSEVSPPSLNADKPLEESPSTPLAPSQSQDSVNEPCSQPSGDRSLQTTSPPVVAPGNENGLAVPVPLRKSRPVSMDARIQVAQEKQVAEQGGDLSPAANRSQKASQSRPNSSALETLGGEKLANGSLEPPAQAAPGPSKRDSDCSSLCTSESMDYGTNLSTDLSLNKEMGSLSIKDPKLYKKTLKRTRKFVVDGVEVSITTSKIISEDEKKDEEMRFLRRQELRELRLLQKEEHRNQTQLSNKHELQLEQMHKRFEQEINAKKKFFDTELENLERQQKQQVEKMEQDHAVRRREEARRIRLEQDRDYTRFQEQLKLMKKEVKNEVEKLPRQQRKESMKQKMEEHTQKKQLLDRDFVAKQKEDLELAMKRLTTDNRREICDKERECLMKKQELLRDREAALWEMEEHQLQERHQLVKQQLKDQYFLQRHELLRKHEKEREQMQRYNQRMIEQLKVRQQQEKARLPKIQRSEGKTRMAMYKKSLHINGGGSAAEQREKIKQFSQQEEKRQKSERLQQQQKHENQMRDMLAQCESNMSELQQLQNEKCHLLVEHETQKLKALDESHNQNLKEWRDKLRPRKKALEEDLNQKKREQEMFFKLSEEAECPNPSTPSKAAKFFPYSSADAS
T8 sequence (Q8TDR2 whole entry): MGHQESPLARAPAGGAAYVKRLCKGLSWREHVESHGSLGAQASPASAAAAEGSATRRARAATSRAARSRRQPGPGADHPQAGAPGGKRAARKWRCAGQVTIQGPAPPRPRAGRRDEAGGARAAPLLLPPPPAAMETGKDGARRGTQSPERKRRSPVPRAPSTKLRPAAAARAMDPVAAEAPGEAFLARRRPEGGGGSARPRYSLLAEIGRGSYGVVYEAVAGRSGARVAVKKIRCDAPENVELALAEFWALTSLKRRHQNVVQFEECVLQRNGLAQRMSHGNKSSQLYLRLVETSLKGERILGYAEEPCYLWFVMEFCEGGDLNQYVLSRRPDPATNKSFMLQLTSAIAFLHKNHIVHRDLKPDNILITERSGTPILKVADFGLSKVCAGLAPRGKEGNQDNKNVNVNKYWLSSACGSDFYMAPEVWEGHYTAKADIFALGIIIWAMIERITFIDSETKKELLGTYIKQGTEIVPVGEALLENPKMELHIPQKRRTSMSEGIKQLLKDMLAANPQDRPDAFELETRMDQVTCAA
T5 sequence (Q13164 whole entry): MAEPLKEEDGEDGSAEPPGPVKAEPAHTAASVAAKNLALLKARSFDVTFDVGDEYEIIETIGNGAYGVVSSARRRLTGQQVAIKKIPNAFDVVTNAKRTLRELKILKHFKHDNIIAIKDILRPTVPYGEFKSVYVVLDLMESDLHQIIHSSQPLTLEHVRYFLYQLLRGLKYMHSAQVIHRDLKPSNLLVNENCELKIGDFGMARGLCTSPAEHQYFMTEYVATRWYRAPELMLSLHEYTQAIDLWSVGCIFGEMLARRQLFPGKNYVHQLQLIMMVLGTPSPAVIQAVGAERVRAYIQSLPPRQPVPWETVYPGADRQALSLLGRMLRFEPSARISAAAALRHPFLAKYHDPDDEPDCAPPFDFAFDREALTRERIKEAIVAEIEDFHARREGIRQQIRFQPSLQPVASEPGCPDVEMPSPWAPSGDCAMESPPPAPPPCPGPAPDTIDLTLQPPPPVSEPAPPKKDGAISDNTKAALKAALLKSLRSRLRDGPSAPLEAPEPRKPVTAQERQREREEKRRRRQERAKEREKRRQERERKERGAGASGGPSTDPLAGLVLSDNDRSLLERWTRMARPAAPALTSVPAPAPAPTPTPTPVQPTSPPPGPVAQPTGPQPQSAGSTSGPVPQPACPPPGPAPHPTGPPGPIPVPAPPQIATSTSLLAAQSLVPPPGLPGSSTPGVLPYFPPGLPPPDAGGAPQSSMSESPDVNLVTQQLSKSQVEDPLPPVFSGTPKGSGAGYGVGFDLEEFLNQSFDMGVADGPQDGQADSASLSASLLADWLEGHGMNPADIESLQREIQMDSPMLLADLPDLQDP

SMILES | remaining binding at 1 µM (panel of 468 kinases [1]) [%] | remaining binding at 1 µM (panel of 468 kinases [2]) [%] | remaining binding at 1 µM (panel of 468 kinases [3]) [%] | remaining binding at 1 µM (panel of 468 kinases [4]) [%] | remaining binding at 1 µM (panel of 468 kinases [5]) [%] | remaining binding at 1 µM (panel of 468 kinases [6]) [%] | remaining binding at 1 µM (panel of 468 kinases [7]) [%] | remaining binding at 1 µM (panel of 468 kinases [8]) [%] | remaining binding at 1 µM (panel of 468 kinases [9]) [%]
CNc1nc(Nc2ccc(S(=O)(=O)N3CCC(N4CCOCC4)CC3)cc2OC)nc2[nH]cc(Cl)c12 [Compound 12, 5-chloro-N2-(2-methoxy-4-((4-morpholinopiperidin-1-yl)sulfonyl)phenyl)-N4-methyl-7H-pyrrolo[2,3-d]pyrimidine-2,4-diamine] | 89 | 94 | 95 | 38 | 53 | 100 | 100 | 100 | 100
CNc1nc(Nc2ccc(C(=O)N3CCC(N4CCOCC4)CC3)c3c2OCO3)nc2[nH]cc(Cl)c12 [Compound 75, (7-((5-chloro-4-(methylamino)-7H-pyrrolo[2,3-d]pyrimidin-2-yl)amino)benzo[d][1,3]dioxol-4-yl)(4-morpholinopiperidin-1-yl)methanone] | 28 | 96 | 54 | 38 | 51 | 100 | 98 | 100 | 100
CNc1nc(Nc2ccc(P3(=O)CCN(C4CCOCC4)CC3)cc2OC)nc2[nH]cc(Cl)c12 [Compound 77, 4-(4-((5-chloro-4-(methylamino)-7H-pyrrolo[2,3-d]pyrimidin-2-yl)amino)-3-methoxyphenyl)-1-(tetrahydro-2H-pyran-4-yl)-1,4-azaphosphinane 4-oxide] | 88 | 90 | 100 | 35 | 78 | 96 | 62 | 100 | 100
